Measurements: PMC10810714, “Antiretroviral Drug Exposure and Response in Obese and Morbidly Obese People With Human Immunodeficiency Virus (HIV): A Study Combining Modelling and Swiss HIV Cohort Data” (Clinical Infectious Diseases: An Official Publication of …, 2023)

What was measured:
[1] = Observed pharmacokinetics of antiretrovirals in nonobese and obese individuals (SHCS therapeutic drug monitoring data and literature studies, noncompartmental analysis)
Excerpt: (§1) We took several steps to analyse the impact of obesity on the ARVs exposure and response. First, we implemented our in-house PBPK model with our recently published virtual White obese population to simulate the pharmacokinetics of ARVs in nonobese and obese individuals. Next, we verified the simulations against the TDM data collected during the follow-up visits of the SHCS (multiple drug levels per individual were allowed [more information on the SHCS in the homonymous section in the Supplementary Material]). We then applied the verified model to extrapolate the pharmacokinetics across different obesity classes. Finally, the clinical relevance of obesity-related changes on drug response was evaluated by analyzing HIV viral load and the corresponding TDM values in obese and nonobese individuals in the SHCS.
(§2) All ARV drug models, except for doravirine (Supplementary Table 1), were previously developed and verified to predict the pharmacokinetics in healthy and elderly PWH [6, 12]. […] The TDM data were excluded if the participant’s age was younger than 20 or older than 50 years to avoid the age-related confounding effect on the pharmacokinetics, if a nonstandard ARV dosage was used, and if concurrent medications with inhibitory or inducing effects were used. The pharmacokinetic parameters including peak plasma concentration (Cmax), area under the curve to time t (AUCt), and trough concentration (Cτ) were derived from the TDM data using noncompartmental analysis.
(§3) A literature search was also performed to identify pharmacokinetic studies with ARVs conducted in obese and nonobese individuals. Data on the study design, characteristics of the participants, and pharmacokinetic results were collected. […] Available concentration-time profiles were digitalized using GetData Graph Digitizer V.2.26. The virtual trials were conducted by matching the participants’ demographics (eg, age, proportion of females, and BMI) and the ARV dosing regimen (Supplementary Table 2). The models were considered verified if the simulations were within 2-fold of observed data.
The Swiss HIV Cohort Study (SHCS) is an ongoing, nationwide, multicenter, clinic-based prospective cohort study in Switzerland with continuous enrollment and follow-up (twice a year) of people with HIV (PWH). Socio-demographic, clinical and laboratory data are recorded in detail. […] The collection of therapeutic drug monitoring (TDM) data in the SHCS database was initiated in 1998. All available TDM data for each evaluated antiretroviral drug were extracted from the SHCS database representing 6210 and 575 data points for the verification of the simulations in non-obese and obese individuals, respectively.

[2] = test system: HIV viral load; test: Drug response in obese versus nonobese participants in the SHCS (concentration below efficacy threshold and viral load >50 copies/mL)
Protocol: The viral load was analyzed in conjunction with the TDM data to evaluate whether a decrease in ARV exposure in obese PWH is associated with a viral load of more than 50 copies/mL (the viral load measured on the date of the TDM assessment was considered for this evaluation).

[3] = nonobese, standard oral dose at steady state; GM (mean for etravirine, emtricitabine, tenofovir); literature studies only, ref Supplementary Table 2 [9-16, 21-24]; cited from earlier work
[4] = parameters: method as in earlier work; conditions: PBPK model parameter, supplement reference list; cited from earlier work
[5] = PBPK model virtual trials matched to the observed studies (model verification, nonobese vs obese); parameters: species or system human
Excerpt: as §1, §2, §3

[6] = test system: CYP3A4; test: Doravirine PBPK model parameter: CYP3A4 intrinsic clearance; type: in vitro ADME; conditions: Retrograde calculation
Excerpt: Supplementary Table 1. Doravirine PBPK model parameters.

[7] = clinical study; cited from earlier work
[8] = parameters: method as in earlier work; conditions: PBPK model parameter, supplement reference list; cited from earlier work; remark: listed apart in the source

## Cn1c(Cn2ccc(C(F)(F)F)c(Oc3cc(Cl)cc(C#N)c3)c2=O)n[nH]c1=O [Doravirine, doravirine]
[1]; obese (BMI >=30, range per drug), standard oral dose at steady state, GM (mean for etravirine), SHCS TDM data with or without literature data
  Cτ, observed, obese individuals: 513 ng/mL
[1]; observed data
  Cτ, Ratio Obese/Nonobese, Observed: 1.27
[2]; BMI 18.5–30 kg/m^2
  % PWH with concentration below efficacy threshold: 0%
[2]; BMI 18.5–30 kg/m^2, viral load above 50 copies/mL
  % PWH with virological failure amongst those with concentration below efficacy threshold: 0%
[2]; BMI >30 kg/m^2
  % PWH with concentration below efficacy threshold: 25%
[2]; BMI >30 kg/m^2, viral load above 50 copies/mL
  % PWH with virological failure amongst those with concentration below efficacy threshold: 0%
[3]
  AUCt, observed, nonobese individuals: 17 498 ng*h/mL
  Cmax, observed, nonobese individuals: 1226 ng/mL
  Cτ, observed, nonobese individuals: 404 ng/mL
  t1/2, observed, nonobese individuals: 13.5 h
[4]
  Apparent permeability: 25 10^-6 cm/sec
  BP (blood-plasma-ratio): 1.0
  CLrenal (renal clearance): 0.566 L/h
  fup (fraction unbound in plasma): 0.24
[5]
  Cτ, Ratio (Predicted Ratio Obese/Nonobese)/(Observed Ratio Obese/Nonobese): 0.79
[5]; nonobese individuals
  AUCt, Ratio Predicted/Observed, Nonobese: 1.00
  Cmax, Ratio Predicted/Observed, Nonobese: 1.10
  Cτ, Ratio Predicted/Observed, Nonobese: 0.86
  t1/2, Ratio Predicted/Observed, Nonobese: 1.03
[5]; obese individuals
  Cτ, Ratio Predicted/Observed, Obese: 0.68
[5]; pharmacokinetic parameters in obese and nonobese individuals, 1.25-fold 'for the most part'
  Predictions within x-fold of observed clinical data: ≤ 1.25 fold
[6]
  CYP3A4 CLint (intrinsic clearance): 0.032 µl/min/pmol enzyme
[7]
  Increase in Cτ in obese compared with nonobese PWH: 22%
[8]
  drug type: Monoprotic base
  log P (octanol-water partition coefficient): 3.0
  pKa1: 9.5
